# From patent US8318792B2, “Therapeutic agent for amyotrophic lateral sclerosis” (Nippon Medical School Foundation, priority 2006, dated 2012)
# Key:
# Assay type in all cases: in vivo, mouse
# [1] = test system: G1H-G93A transgenic mice; assay: Clinical symptomatological evaluation (day of onset, survival period, disease period, stage periods); conditions: for day of onset / disease period / survival period / time period of clinical symptomatological stage 1 / time period of clinical symptomatological stage 2 / time period of clinical symptomatological stage 3 / time period of clinical symptomatological stage 4 / time period of clinical symptomatological stage 5: average±SD
# Method in brief: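 Male hemizygous G1H-G93A mice (mutant human SOD1, 25 copies) given compound suspended in 0.5% methylcellulose at 5 mg/kg orally once daily, from day 80 after birth or from onset (stage 1 symptoms) to endpoint; n=10 per group. Daily clinical staging gave onset day, survival and disease period in days, as mean±SD.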
# [2] = test system: G1H-G93A transgenic mice; assay: Exercise tolerance test: extension reflex test; conditions: for Extension reflex test score: 5 mg/kg oral daily from 80th day (before onset), score 0-2
# Protocol: (§1) The following five kinds of exercise tolerance tests were conducted every fifth day from the 70th day after birth to evaluate the ability to exercise in the respective exercise tolerance tests. That is, the days for the exercise tolerance tests were every fifth days, such as the 70th day, 75th day, 80th day, 85th day and so on, after birth. The exercise tolerance tests were conducted throughout the survival period, and the post-mortem evaluation was based on the definitions of the following five kinds of exercise tolerance tests.
# As for extension reflex, extension of the hindlimbs is normally observed when a mouse is suspended in the air by its tail.
# The evaluation of extension reflex test of the mice was performed based on the following criteria: Score 0=Extension reflex is recognized in both of the hindlimbs; Score 1=Extension reflex is recognized only one hindlimb; and Score 2=Extension reflex is not recognized in both of the hindlimbs. The post-mortem evaluation of the extension reflex test is defined as score 2.
# [3] = test system: G1H-G93A transgenic mice; assay: Exercise tolerance test: footprint test; conditions: 5 mg/kg oral daily from 80th day (before onset), score 0-4
# Protocol: as §1
# Both hindlimbs of a mouse are dipped in a black ink bottle, and then the mouse is allowed to walk on white paper. The footprints of the two hindlimbs of the mouse after the walking are analyzed. […] The post-mortem evaluation of the footprint test is defined as score 4.
# [4] = 5 mg/kg oral daily from 80th day after birth (before onset), Mann-Whitney's U test, log-rank test
# [5] = 5 mg/kg oral daily from the day of onset (after onset), Mann-Whitney's U test, log-rank test
# [6] = 5 mg/kg oral once a day from 80th day after birth (before onset)
# [7] = 5 mg/kg oral once a day from the onset (after onset)
smiles,measurement,setting,value
"Cc1nc(-c2ccc(OCC(C)C)c(C#N)c2)sc1C(=O)O [compound (c), 2-[3-cyano-4-(2-methylpropoxy)phenyl]-4-methyl-5-thiazolecarboxylic acid]",time periods for the respective stages in comparison to placebo group,"[1]; 5 mg/kg oral daily from 80th day after birth (before onset), Mann-Whitney's U test",extended period of the respective stages with significant difference
same,disease period extending effect in comparison to placebo group,[1]; [4],significant extension of the disease period
same,onset delaying effect in comparison to placebo group,[1]; [4],significant delaying of the day of onset
same,survival period extending effect in comparison to placebo group,[1]; [4],significant extension of the survival period
same,time periods for the respective stages in comparison to placebo group,"[1]; 5 mg/kg oral daily from the day of onset (after onset), Mann-Whitney's U test","extended period of stage 3 (P<0.05, Mann-Whitney's U test) and stage 4 (P<0.05, Mann-Whitney's U test) with significant differences"
same,disease period extending effect in comparison to placebo group,[1]; [5],disease period extending effect
same,survival period extending effect in comparison to placebo group,[1]; [5],survival period extending effect
same,day of onset,[1]; [6],112.0 ± 4.6 days
same,disease period,[1]; [6],25.4 ± 3.2 days
same,survival period,[1]; [6],136.4 ± 3.3 days
same,time period of clinical symptomatological stage 1,[1]; [6],7.5±0.9 days
same,time period of clinical symptomatological stage 2,[1]; [6],6.7±1.2 days
same,time period of clinical symptomatological stage 3,[1]; [6],5.4±1.1 days
same,time period of clinical symptomatological stage 4,[1]; [6],3.9±1.1 days
same,time period of clinical symptomatological stage 5,[1]; [6],1.9±0.3 days
same,day of onset,[1]; [7],100.7 ± 4.3 days
same,disease period,[1]; [7],24.2 ± 3.2 days
same,survival period,[1]; [7],123.9 ± 3.2 days
same,time period of clinical symptomatological stage 1,[1]; [7],7.6±1.2 days
same,time period of clinical symptomatological stage 2,[1]; [7],6.2±0.8 days
same,time period of clinical symptomatological stage 3,[1]; [7],5.4±1.1 days
same,time period of clinical symptomatological stage 4,[1]; [7],3.5±0.5 days
same,time period of clinical symptomatological stage 5,[1]; [7],1.5±0.5 days
same,Extension reflex test score,"[2]; 70th day after birth, 5 mg/kg",0.0±0.0
same,Extension reflex test score,"[2]; 75th day after birth, 5 mg/kg",0.0±0.0
same,Extension reflex test score,"[2]; 80th day after birth, 5 mg/kg",0.0±0.0
same,Extension reflex test score,"[2]; 85th day after birth, 5 mg/kg",0.0±0.0
same,Extension reflex test score,"[2]; 90th day after birth, 5 mg/kg",0.0±0.0
same,Extension reflex test score,"[2]; 95th day after birth, 5 mg/kg",0.0±0.0
same,Extension reflex test score,"[2]; 100th day after birth, 5 mg/kg",0.0±0.0
same,Extension reflex test score,"[2]; 105th day after birth, 5 mg/kg",0.0±0.0
same,effect in extension reflex test as compared to placebo group,"[2]; 105th, 110th, 115th and 120th day, 5 mg/kg oral daily from 80th day after birth, Mann-Whitney's U test",significant effects
same,Extension reflex test score,"[2]; 110th day after birth, 5 mg/kg",0.1±0.3
same,Extension reflex test score,"[2]; 115th day after birth, 5 mg/kg",0.5±0.5
same,Extension reflex test score,"[2]; 120th day after birth, 5 mg/kg",1.1±0.6
same,Extension reflex test score,"[2]; 125th day after birth, 5 mg/kg",1.7±0.5
same,Extension reflex test score,[2]; 130th day after birth,2.0 ± 0.0
same,Extension reflex test score,[2]; 135th day after birth,2.0 ± 0.0
same,Extension reflex test score,[2]; 140th day after birth,2.0 ± 0.0
same,Extension reflex test score,[2]; from the 130th day to 140th day after birth,2.0±0.0
same,Footprint test score,[3]; 70th day after birth,0.0±0.0
same,Footprint test score,[3]; 75th day after birth,0.0±0.0
same,Footprint test score,[3]; 80th day after birth,0.0±0.0
same,Footprint test score,[3]; 85th day after birth,0.0±0.0
same,Footprint test score,[3]; 90th day after birth,0.0±0.0
same,Footprint test score,[3]; 95th day after birth,0.0±0.0
same,Footprint test score,[3]; 100th day after birth,0.0±0.0
same,Footprint test score,[3]; 105th day after birth,0.0±0.0
same,Footprint test score,[3]; 110th day after birth,0.1±0.3
same,Footprint test score,[3]; 115th day after birth,0.7±0.8
same,Footprint test score,[3]; 120th day after birth,1.6±1.0
same,Footprint test score,[3]; 125th day after birth,2.7±0.5
same,Footprint test score,[3]; 130th day after birth,3.3±0.5
same,Footprint test score,[3]; 135th day after birth,3.9±0.3
same,Footprint test score,[3]; 140th day after birth,4.0±0.0
